This note sets out measurements from PubChem BioAssay (NCI).

The structures appear in SMILES notation.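 Briefly, cells in 96-well plates were exposed to five compound concentrations for 48 h, and endpoints were estimated by linear interpolation. Abbreviation: GI50, concentration required for 50% inhibition of growth. TGI is the concentration that stops growth completely.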

The subject of one test is A498 renal. Nature of the test: NCI tumour cell line growth inhibition, 48 h.
For `Cc1ccccc1/C=C/C(=O)c1ccccc1`, the TGI is 30.2 µM.

Turning to `Cc1cc2c(cc1Cl)S/C(=C/C(=O)O)C(Nc1cccc3nsnc13)=NS2(=O)=O`, the GI50 was above 100 µM and the TGI is above 100 µM.

As to `CCOC(=O)N1CCN(CCCCCOc2ccccc2C2CCCCC2)CC1`, the GI50 was 13.5 µM and the TGI was 26.9 µM.

With `O=C1c2ccccc2-c2c1c1ccccc1c(=O)n2CCNCCn1c2c(c3ccccc3c1=O)C(=O)c1ccccc1-2`, the GI50 is above 25 µM and the TGI was above 25 µM.

`CCCCCCCCCCCCCC[n+]1cccc(C(N)=O)c1`: the GI50 was 5.57 µM and the TGI was determined as 29.2 µM.

The subject of the next test is HCT-15 colon. Nature of the test: NCI tumour cell line growth inhibition, 48 h.
Compound `Cc1c(C(=O)/C=C/c2ccccc2[N+](=O)[O-])[n+](=O)c2ccccc2n1[O-]` came in with a TGI of 12.6 µM.

Turning to `O=C(/C=C/c1cccc(O)c1)c1cccc(-n2cc(-c3ccc4ccccc4c3)[nH]c2=O)c1`, the GI50 was 1.56 µM and the TGI was determined as 4.8 µM.

`COc1ccc2c(NCCCCCCNc3c4ccccc4nc4cc(OC)ccc34)c3ccccc3nc2c1`: the TGI was 9.36 µM.

On to `O=C(O)c1ccccc1C(=O)c1ccc2c(c1)Cc1ccccc1-2`, for which the TGI was above 100 µM.

Compound `CC(C)(C)c1ccc(OC2CCO2)cc1` (stereo not drawn) came in with a TGI of 36.9 µM.

`C=CC1=C(C)C2=NC1=CC1=NC(=CC3=C(C)C4=C(O)[C@H](C(=O)OC)C(=C5NC(=C2)[C@@H](C)[C@@H]5CCC(=O)O)C4=N3)C(CC)=C1C` displayed a TGI of 9.72 µM.

Turning to `CC1(O)CCn2c(=O)c3cc4ccccc4cc3c(=O)n2C1O` (stereo not drawn), the TGI was above 100 µM.

Turning to `CC(C)[O-].CC(C)[O-].O=c1cccccc1[O-].O=c1cccccc1[O-].[Ti+4]`, the TGI is above 100 µM.

In turn, `COc1ccccc1NC(=O)/C(=C/c1ccccc1)C(C)=O` gave a TGI above 100 µM.

Regarding `Clc1ccc2c(c1)N(c1ncnc3ccc(-c4cnc5[nH]ncc5c4)cc13)CC2`, the GI50 was 0.392 µM and the TGI is above 100 µM.

Regarding `O=C(CC1(O)C(=O)Nc2c(Cl)ccc(Cl)c21)c1ccc(Cl)cc1Cl` (stereo not drawn), the TGI is above 100 µM.

Turning to `C=C1C2Oc3ccccc3C1N(c1ccccc1)O2` (stereo not drawn), the TGI is above 100 µM.

For the compound `O=C(c1cccs1)C1NO[N+]([O-])=C1c1cccs1` (stereo not drawn), the GI50 was 3.43 µM and the TGI came to 14.7 µM.

For the compound `CC(=O)[CH-]C(=O)c1ccccc1.CC(=O)[CH-]C(=O)c1ccccc1.CC1(C)OCC(C2OC3OC(C)(C)OC3C2[O-])O1.CC[O-].[Ti+4]` (stereo not drawn), the GI50 is 25.9 µM and the TGI came out at 68 µM.

As to `CCOC(=O)C1(Cc2ccc3ccccc3c2)CCCCC(=O)N1` (stereo not drawn), the TGI was above 100 µM.

Turning to `Cc1ccccc1/C=C/C(=O)c1ccccc1`, the TGI is above 10 µM.

For `Cc1cc2c(cc1Cl)S/C(=C/C(=O)O)C(Nc1cccc3nsnc13)=NS2(=O)=O`, the GI50 is above 54.7 µM and the TGI is above 68.8 µM.

Consider `CCOC(=O)N1CCN(CCCCCOc2ccccc2C2CCCCC2)CC1`, for which the GI50 was 3.09 µM and the TGI worked out at 12.9 µM.

As for `O=C1c2ccccc2-c2c1c1ccccc1c(=O)n2CCNCCn1c2c(c3ccccc3c1=O)C(=O)c1ccccc1-2`, the GI50 is above 25 µM and the TGI is above 25 µM.

Turning to `CCCCCCCCCCCCCC[n+]1cccc(C(N)=O)c1`, the GI50 is 13.5 µM and the TGI stood at 58.3 µM.

For the compound `C/C1=C\CC[C@@](C)(O)[C@@H]2C[C@H](CC/C(C)=C/CC1)C1(CC1)C(=O)O2`, the GI50 is 30.2 µM and the TGI was above 100 µM.

For a further test, the system named is SF-539 CNS. Nature of the test: NCI tumour cell line growth inhibition, 48 h.
`CC(C)(C)OC(=O)NC1CCCC1=O` (stereo not drawn): the TGI was above 100 µM.

In turn, `Cc1c(C(=O)/C=C/c2ccccc2[N+](=O)[O-])[n+](=O)c2ccccc2n1[O-]` came in with a TGI of 10.2 µM.

For `O=C(/C=C/c1cccc(O)c1)c1cccc(-n2cc(-c3ccc4ccccc4c3)[nH]c2=O)c1`, the GI50 is 1.55 µM and the TGI is 2.89 µM.

With `CCCCCCC(C)CCCCCCCCCCC(=O)O` (stereo not drawn), the TGI is above 100 µM.

The compound `COc1ccc2c(NCCCCCCNc3c4ccccc4nc4cc(OC)ccc34)c3ccccc3nc2c1` displayed a TGI of 1.03 µM.

For `O=C(O)c1ccccc1C(=O)c1ccc2c(c1)Cc1ccccc1-2`, the TGI was above 100 µM.

In turn, `CC(C)(C)c1ccc(OC2CCO2)cc1` (stereo not drawn) registered a TGI of 98.6 µM.

The compound `C=CC1=C(C)C2=NC1=CC1=NC(=CC3=C(C)C4=C(O)[C@H](C(=O)OC)C(=C5NC(=C2)[C@@H](C)[C@@H]5CCC(=O)O)C4=N3)C(CC)=C1C` showed a TGI of 4.63 µM.

In turn, `CC1(O)CCn2c(=O)c3cc4ccccc4cc3c(=O)n2C1O` (stereo not drawn) gave a TGI above 100 µM.

Take `CC(C)[O-].CC(C)[O-].O=c1cccccc1[O-].O=c1cccccc1[O-].[Ti+4]`: the GI50 was 29.3 µM and the TGI was above 100 µM.

Consider `COc1ccccc1NC(=O)/C(=C/c1ccccc1)C(C)=O`, for which the TGI worked out at 62 µM.

Turning to `Clc1ccc2c(c1)N(c1ncnc3ccc(-c4cnc5[nH]ncc5c4)cc13)CC2`, the GI50 is 0.645 µM and the TGI was above 100 µM.

With `O=C(CC1(O)C(=O)Nc2c(Cl)ccc(Cl)c21)c1ccc(Cl)cc1Cl` (stereo not drawn), the TGI amounted to 39.8 µM.

The compound `C=C1C2Oc3ccccc3C1N(c1ccccc1)O2` (stereo not drawn) displayed a TGI of 57.3 µM.

For `O=C(c1cccs1)C1NO[N+]([O-])=C1c1cccs1` (stereo not drawn), the GI50 is 1.86 µM and the TGI turned out to be 3.39 µM.

As to `CC(=O)[CH-]C(=O)c1ccccc1.CC(=O)[CH-]C(=O)c1ccccc1.CC1(C)OCC(C2OC3OC(C)(C)OC3C2[O-])O1.CC[O-].[Ti+4]` (stereo not drawn), the GI50 was 13.3 µM and the TGI amounted to 27.4 µM.

On to `Cc1ccccc1/C=C/C(=O)c1ccccc1`, for which the TGI was found to be 28.7 µM.

As to `CCOC(=O)N1CCN(CCCCCOc2ccccc2C2CCCCC2)CC1`, the GI50 was 6.39 µM and the TGI turned out to be 19.1 µM.

Consider `O=C1c2ccccc2-c2c1c1ccccc1c(=O)n2CCNCCn1c2c(c3ccccc3c1=O)C(=O)c1ccccc1-2`, for which the GI50 is above 25 µM and the TGI was above 25 µM.

Regarding `N#CC(C#N)=c1c2nsnc2c(=C(C#N)C#N)c2nsnc12`, the TGI worked out at 3.46 µM.

In the case of `C/C1=C\CC[C@@](C)(O)[C@@H]2C[C@H](CC/C(C)=C/CC1)C1(CC1)C(=O)O2`, the GI50 was 49.4 µM and the TGI was above 100 µM.
